Reference: US20200031778A1, “NOVEL 5-SUBSTITUTED IMIDAZOLYLMETHYL DERIVATIVES” (Bayer CropScience Aktiengesellschaft, priority 2016, published 2020)

Columns and labels:
Septoria tritici = assay: Example IX-B: in vivo preventive test on Septoria tritici (leaf spot on wheat); conditions: Zymoseptoria tritici, 576 h; compounds of formula IX; 500 ppm of active ingredient; wheat plants, preventive spray; evaluated 24 days after inoculation; read-out: efficacy
Procedure: Example IX-B: In Vivo Preventive Test on Septoria Tritici (Leaf Spot on Wheat)
(§1) The active ingredients are made soluble and homogenized in a mixture of Dimethyl sulfoxide/Acetone/Tween® 80 and then diluted in water to the desired concentration.
The young plants of wheat are treated by spraying the active ingredient prepared as described above. Control plants are treated only with an aqueous solution of Acetone/Dimethyl sulfoxide/Tween® 80.
After 24 hours, the plants are contaminated by spraying the leaves with an aqueous suspension of Septoria tritici spores. The contaminated wheat plants are incubated for 72 hours at 18° C. and at 100% relative humidity and then for 21 days at 20° C. and at 90% relative humidity.
The test is evaluated 24 days after the inoculation. 0% means an efficacy which corresponds to that of the control plants while an efficacy of 100% means that no disease is observed.

[1] = Log P by HPLC on reversed phase columns (EEC directive 79/831 Annex V.A8; methods [a], [b], [c]); format: physicochemical; conditions: for chromatographic logP: reversed phase HPLC column, method [a]: LC-UV, acidic range, 0.1% formic acid in water and acetonitrile as eluent (linear gradient from 10% to 95% acetonitrile)
How it was run: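 Reversed-phase HPLC with LC-UV detection, 10→95% acetonitrile linear gradient; aqueous eluent 0.1% formic acid [a], 0.001 M ammonium acetate, neutral [b], or 0.1% phosphoric acid [c]. Calibrated against C3–C16 alkan-2-ones of known Log P by retention-time linear interpolation; multiple values within a method separated by "+".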

Sphaerotheca fuliginea = assay: Example IX-C: in vivo preventive test on Sphaerotheca fuliginea (powdery mildew on cucurbits); conditions: Podosphaera fuliginea, 360 h; compounds of formula IX; 500 ppm of active ingredient; gherkin plants, preventive spray; evaluated 15 days after inoculation; read-out: efficacy
Procedure: Example IX-C: In Vivo Preventive Test on Sphaerotheca Fuliginea (Powdery Mildew on Cucurbits)
as §1
The young plants of gherkin are treated by spraying the active ingredient prepared as described above. Control plants are treated only with an aqueous solution of Acetone/Dimethyl sulfoxide/Tween® 80.
After 24 hours, the plants are contaminated by spraying the leaves with an aqueous suspension of Sphaerotheca fuliginea spores. The contaminated gherkin plants are incubated for 72 hours at 18° C. and at 100% relative humidity and then for 12 days at 20° C. and at 70-80% relative humidity.
The test is evaluated 15 days after the inoculation. 0% means an efficacy which corresponds to that of the control plants while an efficacy of 100% means that no disease is observed.

LogP [1]	SMILES	other results
–	O=C(Cn1cncc1Cl)c1ccc(Oc2ccc(C(F)(F)F)cc2)c(Br)c1 [IX-16]	pest or weed control at 500 ppm (Septoria tritici): 90 to 100%; chromatographic logP [1]: 3.29
–	N#Cc1cncn1CC(=O)c1ccc(F)cc1 [IX-100, 3-[2-(4-fluorophenyl)-2-oxo-ethyl]imidazole-4-carbonitrile]	pest or weed control at 500 ppm (Sphaerotheca fuliginea): 90 to 100%; pest or weed control at 500 ppm (Septoria tritici): 90 to 100%; chromatographic logP [1]: 1.58
–	O=C(Cn1cncc1Br)c1ccc(Oc2ccc(C(F)(F)F)cc2)c(Cl)c1 [IX-03]	pest or weed control at 500 ppm (Septoria tritici): 90 to 100%; chromatographic logP [1]: 3.23
–	N#Cc1ccc(Oc2ccc(C(=O)Cn3cncc3Cl)c(Cl)c2)cc1 [IX-12]	pest or weed control at 500 ppm (Sphaerotheca fuliginea): 90 to 100%; pest or weed control at 500 ppm (Septoria tritici): 90 to 100%; chromatographic logP [1]: 2.32
–	O=C(Cn1cncc1Cl)c1ccc(F)cc1Br [IX-35]	pest or weed control at 500 ppm (Sphaerotheca fuliginea): 90 to 100%; chromatographic logP [1]: 1.57
–	N#Cc1cncn1CC(=O)c1ccccc1C(F)(F)F [IX-138]	pest or weed control at 500 ppm (Sphaerotheca fuliginea): 90 to 100%; chromatographic logP [1]: 2.07
–	O=C(Cn1cncc1Br)c1ccc(Cl)cc1Cl [IX-20]	pest or weed control at 500 ppm (Sphaerotheca fuliginea): 90 to 100%; pest or weed control at 500 ppm (Septoria tritici): 90 to 100%; chromatographic logP [1]: 1.94
–	N#Cc1cncn1CC(=O)c1ccc(C(F)(F)F)cc1 [IX-117]	pest or weed control at 500 ppm (Septoria tritici): 90 to 100%; chromatographic logP [1]: 1.99
–	COc1ccc(Oc2ccc(C(=O)Cn3cncc3Cl)c(C)n2)c(Cl)c1 [IX-25]	pest or weed control at 500 ppm (Septoria tritici): 90 to 100%; chromatographic logP [1]: 2.33
–	O=C(Cn1cncc1F)c1ccc(Oc2ccc(Br)nc2)nc1C(F)(F)F [IX-142]	pest or weed control at 500 ppm (Sphaerotheca fuliginea): 90 to 100%; pest or weed control at 500 ppm (Septoria tritici): 90 to 100%; chromatographic logP [1]: 2.14
–	N#Cc1cncn1CC(=O)c1ccccc1F [IX-113]	pest or weed control at 500 ppm (Septoria tritici): 70 to 79%; chromatographic logP [1]: 1.65
–	N#Cc1cncn1CC(=O)c1ccccc1Br [IX-127]	pest or weed control at 500 ppm (Septoria tritici): 90 to 100%; chromatographic logP [1]: 1.79
–	CC(=O)c1cncn1CC(=O)c1cnc(Oc2ccc(C(F)F)cc2)cc1C(F)(F)F [IX-103]	pest or weed control at 500 ppm (Sphaerotheca fuliginea): 90 to 100%; pest or weed control at 500 ppm (Septoria tritici): 90 to 100%; chromatographic logP [1]: 2.71
–	O=C(Cn1cncc1Cl)c1ccc(Cl)cc1Cl [IX-19]	pest or weed control at 500 ppm (Sphaerotheca fuliginea): 90 to 100%; pest or weed control at 500 ppm (Septoria tritici): 90 to 100%; chromatographic logP [1]: 1.94
–	N#Cc1cncn1CC(=O)c1ccc(Oc2ccc(Br)nc2)cc1Cl [IX-76]	pest or weed control at 500 ppm (Septoria tritici): 90 to 100%; chromatographic logP [1]: 2.7
–	O=C(Cn1cncc1Cl)c1ncc(Oc2ccccc2)cc1Cl [IX-01]	pest or weed control at 500 ppm (Septoria tritici): 80 to 89%; chromatographic logP [1]: 2.44
–	N#Cc1cncn1CC(=O)c1ccc(Oc2c(F)cc(Cl)cc2F)nc1C(F)(F)F [IX-124]	pest or weed control at 500 ppm (Septoria tritici): 90 to 100%; chromatographic logP [1]: 3.28
–	COc1cc(F)ccc1C(=O)Cn1cncc1Cl [IX-11]	pest or weed control at 500 ppm (Septoria tritici): 90 to 100%; chromatographic logP [1]: 1.34
3.65^[a]	CCCCC(O)(Cn1cncc1C#N)c1ccc(C(F)(F)F)cc1Cl (centres unmarked) [I-266]	–
3.29^[a]	N#Cc1cncn1CC(O)(C#CCC1CCCCC1)CC1CC1 (centres unmarked) [I-428]	–
3.51^[a]	N#Cc1cncn1CC(O)(C#CCC1CCCCC1)C1CCC1 (centres unmarked) [I-592]	–
2.25^[a]	N#Cc1cncn1CC(O)(c1cc(Cl)ccc1F)C1(F)CC1 (centres unmarked) [I-522]	–
2.12^[a]	N#Cc1cncn1CC(O)c1ccc(Cl)cc1Cl (centres unmarked) [I-144]	–
4.24^[a]	C[Si](C)(C)CCC(O)(Cn1cncc1C(F)(F)F)C1(Cl)CC1 (centres unmarked) [I-691]	–

LogP [1]	SMILES	other results
3.13^[a]	Cc1ccc(Oc2ccc(C(C)(O)Cn3cncc3Cl)c(Cl)c2)cc1 (centres unmarked) [I-156]	–
3.23^[a]	COC(Cn1cncc1C#N)c1ccc(Oc2ccccc2)cc1F (centres unmarked) [I-100]	–
2.80^[a]	N#Cc1cncn1CC(O)(c1cc(Cl)cc(Cl)c1Cl)C1(Cl)CC1 (centres unmarked) [I-614]	–
1.98^[a]	OC(Cn1cncc1Cl)c1ccc(Oc2ccc(Cl)cn2)cc1Cl (centres unmarked) [I-37]	–
2.94^[a]	N#Cc1cncn1CC(O)c1ccc(Oc2ccc(Cl)cc2)cc1F (centres unmarked) [I-54]	–
1.76^[a]	N#Cc1cncn1CC(O)(CC1CC1)c1ccc(F)cc1F (centres unmarked) [I-414]	–
3.64^[a]	CC(O)(Cn1cncc1C#N)c1ccc(Oc2ccc(C(F)(F)F)cc2)cc1C(F)(F)F (centres unmarked) [I-206]	–
3.22^[a]	N#Cc1cncn1CC(O)(CC1CC1)c1cc(Cl)c(Cl)c(Cl)c1 (centres unmarked) [I-529]	–
3.33^[a]	N#Cc1cncn1CC(O)c1ccc(Oc2ccc(Br)cc2)cc1Br (centres unmarked) [I-47]	–
2.41^[a]	N#Cc1cncn1CC(O)c1cnc(Oc2ccc(Br)nc2)cc1C(F)(F)F (centres unmarked) [I-153]	–
3.51^[a]	CC(O)(Cn1cncc1C#N)c1cnc(Oc2ccc(C(F)(F)F)cc2)cc1C(F)(F)F (centres unmarked) [I-251]	–
3.29^[a]	CC(O)(Cn1cncc1C#N)c1ccc(Oc2ccc(Br)cc2)cc1F (centres unmarked) [I-191]	–
3.37^[a]	CC(C)(C)C(O)(Cn1cncc1C#N)c1ccc(Cl)cc1Cl (centres unmarked) [I-310]	–
3.35^[a]	C[Si](C)(C)CC(O)(Cn1cncc1C#N)c1ccc(Cl)cc1 (centres unmarked) [I-224]	–
2.74^[a]	N#Cc1cncn1CC(O)(CC1CC1)c1cc(F)c(F)c(Br)c1 (centres unmarked) [I-494]	–
1.98^[a]	CC(O)(Cn1cncc1F)c1ccc(Oc2ccc(Cl)cc2)nc1F (centres unmarked) [I-214]	–
2.94^[a]	CCCCC(O)(Cn1cncc1C#N)c1ccc(C(F)(F)F)cc1 (centres unmarked) [I-277]	–
2.54^[a]	N#Cc1cncn1CC(O)(c1cc(Cl)c(F)cc1Cl)C1(F)CC1 (centres unmarked) [I-575]	–
–	CC(=O)c1cncn1CC(=O)c1ccc(Oc2ccc(C(F)(F)F)nc2)nc1C(F)(F)F [IX-133]	pest or weed control at 500 ppm (Septoria tritici): 90 to 100%; chromatographic logP [1]: 2.6
2.37^[a]	N#Cc1cncn1CC(O)(c1ccccc1Br)C1(Cl)CC1 (centres unmarked) [I-255]	–
3.70^[a]	C[Si](C)(C)CC(O)(Cn1cncc1C#N)c1ccc(OC(F)(F)F)cc1 (centres unmarked) [I-270]	–
3.10^[a]	CCCCCC(O)(Cn1cncc1C#N)c1ccc(Cl)cc1 (centres unmarked) [I-286]	–
3.64^[a]	N#Cc1cncn1CC(O)(c1ccc(Oc2ccc(Cl)cc2)cc1Cl)C1(F)CC1 (centres unmarked) [I-390]	–
3.00^[a]	CC(C)(C)C(O)(Cn1cncc1C#N)c1ccc(Cl)cc1F (centres unmarked) [I-342]	–

LogP [1]	SMILES	other results
3.99^[a]	COC(=O)COC(Cn1cncc1C#N)c1ccc(Oc2ccc(Br)cc2)cc1C(F)(F)F (centres unmarked) [I-94]	–
2.76^[a]	CC(O)(Cn1cncc1C#N)c1ccc(Oc2ccc(C(F)(F)F)nc2)nc1C(F)(F)F (centres unmarked) [I-294]	–
2.82^[a]	CCCC(C)C#CC(O)(Cn1cncc1C#N)C1(Cl)CC1 (centres unmarked) [I-658]	–
2.80^[a]	N#Cc1cncn1CC(O)(c1ccc(Cl)cc1Br)C1CC1 (centres unmarked) [I-405]	–
2.73^[a]	N#Cc1cncn1CC(O)(CC1CC1)c1cc(F)c(Cl)c(F)c1 (centres unmarked) [I-499]	–
2.51^[a]	CC(O)(Cn1cncc1F)c1cnc(Oc2ccc(OC(F)(F)F)cc2)cc1C(F)(F)F (centres unmarked) [I-241]	–
2.64^[a]	CC(O)(Cn1cncc1F)c1ccc(Oc2ccc(Cl)cc2)cc1C(F)(F)F (centres unmarked) [I-211]	–
2.67^[a]	N#Cc1cncn1CC(O)(c1ccc(Cl)cc1Cl)C1(Cl)CC1 (centres unmarked) [I-235]	–
2.52^[a]	N#Cc1cncn1CC(O)(c1cccc(Cl)c1Cl)C1(Cl)CC1 (centres unmarked) [I-337]	–
2.16^[a]	N#Cc1cncn1CC(O)(c1cc(F)ccc1Cl)C1(F)CC1 (centres unmarked) [I-439]	–
2.68^[a]	CC(O)(Cn1cncc1C#N)c1cnc(Oc2ccc(Br)cc2)cc1C(F)F (centres unmarked) [I-258]	–
3.44^[a]	N#Cc1cncn1CC(O)c1ccc(Oc2ccc(I)cc2)cc1Cl (centres unmarked) [I-95]	–
3.48^[a]	N#Cc1cncn1CC(O)c1ccc(Oc2ccc(I)cc2)cc1Br (centres unmarked) [I-110]	–
3.02^[a]	N#Cc1cncn1CC(O)(C#CCC1CCCCC1)C1CC1 (centres unmarked) [I-591]	–
2.39^[a]	OC(Cn1cncc1F)c1ccc(Oc2ccc(Cl)cc2)cc1C(F)(F)F (centres unmarked) [I-98]	–
3.01^[a]	CC(O)(Cn1cncc1Cl)c1ccc(Oc2ccc(C(F)(F)F)cc2)cc1C(F)(F)F (centres unmarked) [I-196]	–
3.35^[a]	N#Cc1cncn1CC(O)c1cnc(Oc2ccc(OC(F)(F)F)cc2)cc1C(F)(F)F (centres unmarked) [I-125]	–
2.80^[a]	CC(O)(Cn1cncc1Cl)c1ccc(Oc2ccc(Cl)cc2)cc1C(F)(F)F (centres unmarked) [I-168]	–
2.21^[a]	OC(Cn1cncc1Cl)c1ccc(Oc2ccc(Cl)cn2)cc1C(F)(F)F (centres unmarked) [I-65]	–
3.29^[a]	CCC(C)C(O)(Cn1cncc1C#N)c1ccc(Cl)cc1Cl (centres unmarked) [I-314]	–
2.41^[a]	N#Cc1cncn1CC(O)(c1ccc(F)cc1Cl)C1CC1 (centres unmarked) [I-412]	–
3.83^[a]	CCCCCC(O)(Cn1cncc1C#N)c1ccc(Cl)cc1Cl (centres unmarked) [I-302]	–
2.25^[a]	OC(Cn1cncc1F)c1ccc(Oc2ccc(Cl)cc2)nc1C(F)(F)F (centres unmarked) [I-123]	–
2.59^[a]	O=C(Cn1cncc1F)c1ccc(Oc2ccc(Cl)cc2)nc1C(F)(F)F [IX-106]	–

SMILES	LogP [1]	other results
N#Cc1cncn1CC(O)(c1ccc(Cl)nc1Br)C1(F)CC1 (centres unmarked) [I-556]	1.99^[a]	–
